Measured values published in patent US8637511B2, “Aminopyrimidines useful as kinase inhibitors” (Vertex Pharmaceuticals Incorporated, priority 2005, dated 2014).
Like-named read-outs stand apart in the source and are kept apart here.

Experiments:
Aurora-2 (Aurora A) = target: T1, Aurora-2 (Aurora A) (Homo sapiens, UniProt O14965); test: Aurora-2 (Aurora A) inhibition assay, coupled enzyme; format: biochemical; conditions: read-out: Aurora A kinase Ki value
T1 sequence (O14965 1-403): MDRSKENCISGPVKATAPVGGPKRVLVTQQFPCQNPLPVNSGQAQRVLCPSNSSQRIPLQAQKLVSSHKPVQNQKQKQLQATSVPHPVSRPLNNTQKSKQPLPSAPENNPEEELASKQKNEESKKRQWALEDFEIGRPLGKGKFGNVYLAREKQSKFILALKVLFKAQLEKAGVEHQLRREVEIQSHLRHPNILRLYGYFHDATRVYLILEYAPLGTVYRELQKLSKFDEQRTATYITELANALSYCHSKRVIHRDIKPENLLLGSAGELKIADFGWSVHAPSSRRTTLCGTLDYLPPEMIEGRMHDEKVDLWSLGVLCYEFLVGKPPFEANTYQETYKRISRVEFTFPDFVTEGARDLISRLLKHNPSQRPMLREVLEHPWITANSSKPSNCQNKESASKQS
How it was run: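 Coupled pyruvate kinase/lactate dehydrogenase assay with NADH in pH 7.5 Hepes containing MgCl2, DTT and NaCl, using 40 nM Aurora-2 at 30 °C. After a 10 min preincubation, enzyme addition started the reaction, and initial rates were taken over 10 min. IC50 and Ki came from non-linear regression.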

JAK3 = target: T2, JAK3 (Homo sapiens, UniProt P52333); test: biochemical
T2 sequence (P52333 1-1124): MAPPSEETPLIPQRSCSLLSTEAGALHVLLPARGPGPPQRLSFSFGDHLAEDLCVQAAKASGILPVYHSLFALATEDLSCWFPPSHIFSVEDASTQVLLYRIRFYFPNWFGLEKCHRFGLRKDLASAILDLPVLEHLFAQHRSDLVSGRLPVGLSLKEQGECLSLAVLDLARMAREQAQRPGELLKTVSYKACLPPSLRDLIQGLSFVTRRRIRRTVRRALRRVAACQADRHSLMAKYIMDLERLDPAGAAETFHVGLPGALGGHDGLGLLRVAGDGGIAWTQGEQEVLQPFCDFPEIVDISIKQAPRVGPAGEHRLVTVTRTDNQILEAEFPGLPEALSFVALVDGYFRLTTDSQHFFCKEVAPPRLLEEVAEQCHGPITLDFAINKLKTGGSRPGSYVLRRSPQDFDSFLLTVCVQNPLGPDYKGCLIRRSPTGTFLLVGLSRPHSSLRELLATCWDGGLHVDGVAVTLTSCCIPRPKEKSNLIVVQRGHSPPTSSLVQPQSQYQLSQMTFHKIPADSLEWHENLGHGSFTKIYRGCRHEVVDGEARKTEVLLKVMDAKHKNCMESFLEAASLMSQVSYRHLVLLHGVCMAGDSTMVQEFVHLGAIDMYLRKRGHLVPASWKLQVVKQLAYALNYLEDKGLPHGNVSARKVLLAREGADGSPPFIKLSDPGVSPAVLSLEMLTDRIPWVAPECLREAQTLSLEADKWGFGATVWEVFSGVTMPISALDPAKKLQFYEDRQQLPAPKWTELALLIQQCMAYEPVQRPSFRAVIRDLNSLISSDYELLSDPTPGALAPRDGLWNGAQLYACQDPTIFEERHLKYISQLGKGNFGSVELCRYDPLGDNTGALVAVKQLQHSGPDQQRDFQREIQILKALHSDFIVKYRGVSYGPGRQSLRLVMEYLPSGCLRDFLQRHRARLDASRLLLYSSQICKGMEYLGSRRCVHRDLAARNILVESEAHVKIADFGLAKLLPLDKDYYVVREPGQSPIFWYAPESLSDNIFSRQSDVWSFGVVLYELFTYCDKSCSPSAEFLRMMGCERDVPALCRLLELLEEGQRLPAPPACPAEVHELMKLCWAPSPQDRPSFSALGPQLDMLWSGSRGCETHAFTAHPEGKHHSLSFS

Colo205 cells = test: Analysis of cell proliferation and viability; format: cell-based; conditions: Homo sapiens, COLO 205, Colo205 cells, read-out: IC50 value

| SMILES | Ki (Aurora-2 (Aurora A)) | Ki (JAK3; read-out: JAK3 Ki value) | IC50 (Colo205 cells; incubated for 96 hours) | Ki (JAK3) | IC50 (Colo205 cells; incubated for 72 hours) |
| --- | --- | --- | --- | --- | --- |
| CCOC1CN(c2cc(Nc3cc(C)[nH]n3)nc(Sc3ccc(NC(=O)c4ccccc4Cl)cc3)n2)C1 [Compound 37] | ≤ 1 nM | ≤ 10 nM | 50 to 1000 nM |  |  |
| Cc1cc(Nc2cc(N3CC(OC(C)C)C3)nc(Sc3ccc(NC(=O)c4ccccc4Cl)cc3)n2)n[nH]1 [Compound 38] | ≤ 1 nM |  | ≤ 50 nM | 10 to 500 nM |  |
| Cc1cc(Nc2cc(N3CC(C)(O)C3)nc(Sc3ccc(NC(=O)c4ccccc4Cl)cc3)n2)[nH]n1 [Compound 50] | ≤ 1 nM | ≤ 10 nM | ≤ 50 nM |  | ≤ 30 nM |
| COC1(C)CN(c2cc(Nc3cc(C)n[nH]3)nc(Sc3ccc(NC(=O)c4ccccc4Cl)cc3)n2)C1 [Compound 51] | ≤ 1 nM |  | ≤ 50 nM | 10 to 500 nM | ≤ 30 nM |
| Cc1cc(Nc2cc(N3CCC3)nc(Sc3ccc(NC(=O)Cc4ccccc4Cl)cc3)n2)[nH]n1 [Compound 57] | ≤ 1 nM |  | 50 to 1000 nM | 10 to 500 nM |  |
| Cc1cc(Nc2cc(N3CCC3)nc(Sc3ccc(NC(=O)c4cnccc4C(F)(F)F)cc3)n2)[nH]n1 [Compound 59] |  |  | 50 to 1000 nM |  | > 200 nM |
| CCC(=O)Nc1ccc(Sc2nc(Nc3cc(C)n[nH]3)cc(N3CC(OC(C)(C)C)C3)n2)cc1 [Compound 67] | ≤ 1 nM | 10 to 500 nM | 50 to 1000 nM |  |  |
| CCC(=O)Nc1ccc(Sc2nc(Nc3cc(C)n[nH]3)cc(N3CC(N4CCOCC4)C3)n2)cc1 [Compound 68] | ≤ 1 nM |  | 50 to 1000 nM | 10 to 500 nM |  |
| CC(C)(C)c1cc(Nc2cc(N3CCC3)nc(Sc3ccc(NC(=O)c4ccccc4Cl)cc3)n2)n[nH]1 [Compound 69] |  | 500 to 2000 nM |  |  |  |
| COCc1cc(Nc2cc(N3CCC3)nc(Sc3ccc(NC(=O)c4ccccc4Cl)cc3)n2)n[nH]1 [Compound 82] |  | 500 to 2000 nM |  |  |  |
| Cc1cc(Nc2cc(N3CCC3)nc(Sc3ccc(NC(=O)c4ccc(-c5ccccc5)cc4Cl)cc3)n2)[nH]n1 [Compound 83] | ≤ 1 nM |  |  | 10 to 500 nM | 30 to 200 nM |
| CCC(=O)Nc1ccc(Sc2nc(Nc3cc(C)n[nH]3)cc(N3CC(C)(N4CCOCC4)C3)n2)cc1 [Compound 88] | ≤ 1 nM | ≤ 10 nM | ≤ 50 nM |  |  |
| CCC(=O)Nc1ccc(Sc2nc(Nc3cc(C)n[nH]3)cc(N3CC(C)(N4CCCC4)C3)n2)cc1 [Compound 89] | ≤ 1 nM |  | ≤ 50 nM | 10 to 500 nM | ≤ 30 nM |
| CCC(=O)Nc1ccc(Sc2nc(Nc3cc(C)n[nH]3)cc(N3CC(OC)(C(C)(C)C)C3)n2)cc1 [Compound 90] | ≤ 1 nM |  | ≤ 50 nM | 10 to 500 nM |  |
| CCC(=O)Nc1ccc(Sc2nc(Nc3cc(C)n[nH]3)cc(N3CC4(C3)OCC4(C)C)n2)cc1 [Compound 92] | ≤ 1 nM |  | ≤ 50 nM | ≤ 10 nM |  |
| Cc1cc(Nc2cc(N3CC(O)(C4CC4)C3)nc(Sc3ccc(NC(=O)C4CC4)c(F)c3)n2)[nH]n1 [Compound 109] | ≤ 1 nM | 10 to 500 nM | 50 to 1000 nM |  |  |
| Cc1cc(Nc2cc(N3CC(OC(=O)CN(C)C)(C4CC4)C3)nc(Sc3ccc(NC(=O)C4CC4)cc3)n2)n[nH]1 [Compound 119] | ≤ 1 nM |  |  | 10 to 500 nM | 30 to 200 nM |
| Cc1cc(Nc2cc(N3CC(F)(C4CC4)C3)nc(Oc3ccc(NC(=O)CC(F)(F)F)cc3)n2)[nH]n1 [Compound 144] | ≤ 1 nM |  |  | 10 to 500 nM | ≤ 30 nM |

| SMILES | Ki (Aurora-2 (Aurora A)) | Ki (JAK3; read-out: JAK3 Ki value) | IC50 (Colo205 cells; incubated for 96 hours) | Ki (JAK3) | IC50 (Colo205 cells; incubated for 72 hours) |
| --- | --- | --- | --- | --- | --- |
| Cc1cc(Nc2cc(N3CC(F)(C4CC4)C3)nc(Sc3ccc(NS(C)(=O)=O)cc3)n2)[nH]n1 [Compound 151] | ≤ 1 nM |  |  | ≤ 10 nM | 30 to 200 nM |
| Cc1cc(Nc2cc(N3CC(F)(C4CC4)C3)nc(Sc3ccc(NC(=O)CN(C)C)cc3)n2)[nH]n1 [Compound 152] | ≤ 1 nM |  |  | 500 to 2000 nM | 30 to 200 nM |
| Cc1cc(Nc2cc(N3CC(O)(C4CC4)C3)nc(Sc3ccc4nc(C(F)(F)F)n(C)c4c3)n2)[nH]n1 [Compound 155] | ≤ 1 nM |  | ≤ 50 nM | 10 to 500 nM |  |
| Cc1cc(Nc2cc(N3CC(C)(F)C3)nc(Sc3ccc(NC(=O)CC(F)(F)F)cc3)n2)n[nH]1 [Compound 168, N-(4-(4-(5-methyl-1H-pyrazol-3-ylamino)-6-(3-fluoro-3-methylazetidin-1-yl)pyrimidin-2-ylthio)phenyl)-3,3,3-trifluoropropanamide] | ≤ 1 nM | 10 to 500 nM |  |  | 30 to 200 nM |
| Cc1cc(Nc2cc(N3CC(C)(C#N)C3)nc(Sc3ccc(NC(=O)CC(F)(F)F)cc3)n2)[nH]n1 [Compound 169] | ≤ 1 nM | 10 to 500 nM |  |  | 30 to 200 nM |
| Cc1cc(Nc2cc(N3CC(O)(C4CC4)C3)nc(Sc3cc(F)c4nc(C)ccc4c3)n2)[nH]n1 [Compound 172] | ≤ 1 nM |  |  | ≤ 10 nM | ≤ 30 nM |
| Cc1cc(Nc2cc(N3CC(N4CCOCC4)C3)nc(Sc3ccc4c(c3)CN(CC(F)(F)F)C4=O)n2)[nH]n1 [Compound 173] | ≤ 1 nM |  |  | ≤ 10 nM | 30 to 200 nM |
| Cc1cc(Nc2cc(N3CC(N4CCOCC4)C3)nc(Sc3ccc4nc(CC(F)(F)F)n(C)c4c3)n2)[nH]n1 [Compound 177] | ≤ 1 nM |  |  | 10 to 500 nM | 30 to 200 nM |
| Cc1cc(Nc2nc(Sc3ccc(NC(=O)CC(F)(F)F)cc3)nc(N3CC(F)(C4CC4)C3)c2F)[nH]n1 [Compound 178] | ≤ 1 nM |  |  | 500 to 2000 nM | 30 to 200 nM |
| Cc1cnc(Nc2cc(N3CC(F)(C4CC4)C3)nc(Oc3ccc(NC(=O)CC(F)(F)F)cc3)n2)s1 [Compound 181] | ≤ 1 nM | ≤ 10 nM |  |  | 30 to 200 nM |
| Cc1cc(Nc2cc(N3CC(C)(C(C)(C)F)C3)nc(Sc3ccc(NC(=O)CC(F)(F)F)cc3)n2)[nH]n1 [Compound 183] | ≤ 1 nM | ≤ 10 nM |  |  | ≤ 30 nM |
| CC(C)=C1CN(c2cc(Nc3cc(C)n[nH]3)nc(Sc3ccc(NC(=O)CC(F)(F)F)cc3)n2)C1 [Compound 184] | ≤ 1 nM |  |  | 10 to 500 nM | 30 to 200 nM |
| Cc1cc(Nc2cc(N3CC(N4CC[C@H](F)C4)C3)nc(Sc3ccc(NC(=O)CC(F)(F)F)cc3)n2)[nH]n1 [Compound 185] | ≤ 1 nM | ≤ 10 nM |  |  | ≤ 30 nM |
| Cc1cc(Nc2cc(N3CC(O)(C4CC4)C3)nc(Sc3ccc4nc(C(F)(F)F)ccc4c3)n2)[nH]n1 [Compound 186] | ≤ 1 nM | 10 to 500 nM |  |  | 30 to 200 nM |
| Cc1cc(Nc2cc(N3CC(F)(C4CC4)C3)nc(Sc3ccc(NC(=O)C4(C)CC4)cc3)n2)[nH]n1 [Compound 203] | ≤ 1 nM |  |  | 500 to 2000 nM | 30 to 200 nM |
| Cc1cc(Nc2cc(N3CC(N4CCCC4)C3)nc(Sc3ccc(NC(=O)CC(F)(F)F)cc3)n2)[nH]n1 [Compound 204] | ≤ 1 nM | 10 to 500 nM |  |  | ≤ 30 nM |
| Cc1cc(Nc2cc(N3CC(F)(C4CC4)C3)nc(Sc3ccc(C(=O)NCC(F)(F)F)cc3)n2)[nH]n1 [Compound 205] | ≤ 1 nM | 10 to 500 nM |  |  | ≤ 30 nM |
| Cc1cc(Nc2cc(N3CC(F)(C4CC4)C3)nc(Sc3cnc4ccccc4c3)n2)[nH]n1 [Compound 206] | ≤ 1 nM |  |  | ≤ 10 nM | > 200 nM |
